# In ChEMBL document CHEMBL3044913, “Synthesis, in vitro cytotoxicity, and antibacterial studies of new asymmetric bis-1,2,4-triazoles” (Med Chem Res, 2013):
# What was measured:
# Escherichia coli [1] = assay: Antibacterial activity against Escherichia coli ATCC 25922 assessed as growth inhibition after 24 hr by two-fold serial dilution method; format: functional; details: ATCC 25922, 24 h
# Staphylococcus aureus [2] = assay: Antibacterial activity against Staphylococcus aureus ATCC 25923 assessed as diameter of growth inhibition zone at 100 ug/ml after 24 hr by cup-plate method; format: functional; details: ATCC 25923, 24 h, read-out: DIZ
# Pseudomonas aeruginosa [3] = assay: Antibacterial activity against Pseudomonas aeruginosa ATCC 27853 assessed as growth inhibition after 24 hr by two-fold serial dilution method; format: functional; details: ATCC 27853, 24 h
# Staphylococcus aureus [4] = assay: Antibacterial activity against Staphylococcus aureus ATCC 25923 assessed as growth inhibition after 24 hr by two-fold serial dilution method; format: functional; details: ATCC 25923, 24 h
# HT-29 = assay: Cytotoxicity against Homo sapiens (human) HT-29 cells assessed as inhibition of cell growth after 48 hr by MTT assay; format: functional, cell-based; details: HT-29, 48 h
# [5] = Cytotoxicity against Homo sapiens (human) MDA231 cells assessed as inhibition of cell growth after 48 hr by MTT assay; format: functional, cell-based; details: MDA-MB-231, 48 h
# [6] = tested on: Radical scavenging activity; assay: Antioxidant activity assessed as DPPH radical scavenging activity at 40 ug/ml after 30 min; format: functional
# Bacillus subtilis [7] = assay: Antibacterial activity against Bacillus subtilis ATCC 6633 assessed as diameter of growth inhibition zone at 100 ug/ml after 24 hr by cup plate method; format: functional; details: ATCC 6633, 24 h, read-out: DIZ
# Escherichia coli [8] = assay: Antibacterial activity against Escherichia coli ATCC 25922 assessed as diameter of growth inhibition zone at 100 ug/ml after 24 hr by cup-plate method; format: functional; details: ATCC 25922, 24 h, read-out: DIZ
# Pseudomonas aeruginosa [9] = assay: Antibacterial activity against Pseudomonas aeruginosa ATCC 27853 assessed as diameter of growth inhibition zone at 100 ug/ml after 24 hr by cup-plate method; format: functional; details: ATCC 27853, 24 h, read-out: DIZ
# Bacillus subtilis [10] = assay: Antibacterial activity against Bacillus subtilis ATCC 6633 assessed as growth inhibition after 24 hr by two-fold serial dilution method; format: functional; details: ATCC 6633, 24 h
Structure (SMILES),MIC (Escherichia coli [1]),zone of inhibition at 100 µg/mL (Staphylococcus aureus [2]),MIC (Pseudomonas aeruginosa [3]),MIC (Staphylococcus aureus [4]),IC50 (HT-29),IC50 [5],Activity [6],zone of inhibition at 100 µg/mL (Bacillus subtilis [7]),zone of inhibition at 100 µg/mL (Escherichia coli [8]),zone of inhibition at 100 µg/mL (Pseudomonas aeruginosa [9]),MIC (Bacillus subtilis [10])
Sc1nnc(Sc2nnc(-c3ccccc3)n2-c2ccccc2)n1-c1ccc(Cl)cc1,12.5 µg/mL,16 mm,25 µg/mL,12.5 µg/mL,38.4 µM,49.7 µM,64%,16 mm,16 mm,16 mm,25 µg/mL
Fc1ccc(-n2c(S)nnc2Sc2nnc(-c3ccccc3)n2-c2ccccc2)cc1,50 µg/mL,16 mm,50 µg/mL,25 µg/mL,32.8 µM,29.7 µM,60%,16 mm,16 mm,16 mm,25 µg/mL
Sc1nnc(CSc2nnc(-c3ccccc3)n2-c2ccccc2)n1-c1ccccc1,25 µg/mL,16 mm,50 µg/mL,12.5 µg/mL,5.49 µM,8.57 µM,85%,16 mm,16 mm,16 mm,12.5 µg/mL
O=c1[nH]cc(F)c(=O)[nH]1 [FLUOROURACIL],,,,,3.24 µM,2.72 µM,,,,,
CC1(C)S[C@@H]2[C@H](NC(=O)[C@H](N)c3ccccc3)C(=O)N2[C@H]1C(=O)O [AMPICILLIN],< 6.25 µg/mL,28 mm,< 6.25 µg/mL,< 6.25 µg/mL,,,,28 mm,28 mm,28 mm,< 6.25 µg/mL
Fc1ccc(-n2c(S)nnc2CSc2nnc(-c3ccccc3)n2-c2ccccc2)cc1,25 µg/mL,21 mm,12.5 µg/mL,25 µg/mL,16.7 µM,26.8 µM,72%,21 mm,21 mm,21 mm,12.5 µg/mL
CCOc1ccc(-n2c(S)nnc2Sc2nnc(-c3ccccc3)n2-c2ccccc2)cc1,100 µg/mL,5 mm,100 µg/mL,100 µg/mL,46.8 µM,43.9 µM,59%,5 mm,5 mm,5 mm,100 µg/mL
CC(C)n1c(S)nnc1CSc1nnc(-c2ccccc2)n1-c1ccccc1,100 µg/mL,5 mm,100 µg/mL,100 µg/mL,,,42%,5 mm,5 mm,5 mm,100 µg/mL
Sc1nnc(CSc2nnc(-c3ccccc3)n2-c2ccccc2)n1-c1ccc(Cl)cc1,50 µg/mL,16 mm,100 µg/mL,50 µg/mL,36.6 µM,50.3 µM,65%,16 mm,16 mm,16 mm,25 µg/mL
O=C1O[C@H]([C@@H](O)CO)C(O)=C1O,,,,,,,94%,,,,
CC(C)n1c(S)nnc1Sc1nnc(-c2ccccc2)n1-c1ccccc1,100 µg/mL,5 mm,100 µg/mL,100 µg/mL,,,39%,5 mm,5 mm,5 mm,100 µg/mL
CCOc1ccc(-n2c(S)nnc2CSc2nnc(-c3ccccc3)n2-c2ccccc2)cc1,100 µg/mL,5 mm,100 µg/mL,100 µg/mL,,,34%,5 mm,5 mm,5 mm,100 µg/mL
COc1ccc(-n2c(S)nnc2Sc2nnc(-c3ccccc3)n2-c2ccccc2)cc1,100 µg/mL,5 mm,100 µg/mL,100 µg/mL,,,28%,5 mm,5 mm,5 mm,100 µg/mL
Sc1nnc(Sc2nnc(-c3ccccc3)n2-c2ccccc2)n1-c1ccccc1,100 µg/mL,5 mm,100 µg/mL,100 µg/mL,28.3 µM,34.6 µM,63%,5 mm,5 mm,5 mm,100 µg/mL
COc1ccc(-n2c(S)nnc2CSc2nnc(-c3ccccc3)n2-c2ccccc2)cc1,50 µg/mL,21 mm,100 µg/mL,25 µg/mL,27.7 µM,29.2 µM,63%,21 mm,21 mm,21 mm,50 µg/mL
